The text below walks through data of patent US11554373B2 (priority 2016, dated 2023).

Series [1] deals with THP-1 cells. The series can be described thus: THP-1 cell activation by flow cytometry (CCR5, CD11b, CD86). The class given is cell-based, human. Set-up: CD86 expression (printed C86): dose or concentration left out as unconfirmed. The procedure:
THP-1 monocytes (ATCC, TIB-202) were cultured in T-75 flasks according to the protocol recommended by ATCC. […] THP-1 cells show a proclivity towards forming large aggregates of loosely joined cells. These clumps were broken down back into single cells through the addition of deoxyribonuclease 1 (DNase 1, dissolved in 0.85% NaCl in water) (Sigma-Aldrich, D4513) at a concentration of 0.1 mg/mL. When cells had reached their optimal density, they were harvested and pelleted via centrifugation at 150×g for 5 min, resuspended in multi-organ system medium (MOSM) and added to the systems at a physiologically relevant concentration of 250,000 cells/mL. THP-1 cell adhesion to the inside surfaces of the housings was minimized by passivating the inside surfaces with bovine serum albumin (BSA, 0.5 mg/mL dissolved in PBS). 10 uL of medium was removed from each system daily to determine the number of freely recirculating cells present. Initial THP-1 culture medium consisted of RPMI 1640 base medium (ThermoFisher, 11875135) with 10% fetal bovine serum (ThermoFisher, 16000044) and 1× GlutaMAX (ThermoFisher, 35050061).
A general note: A flow cytometer gives signals particle by particle.

Series [2] deals with IPSC derived cardiomyocytes. The series can be described thus: Cardiac spontaneous beat frequency in 3-O/4-O systems. The class given is cell-based, human. The text has this: Custom patterned multielectrode arrays (cMEAs) were fabricated to simultaneously stimulate and record electrical activity of cardiomyocytes cultured on the surface (100 μm diameter electrodes, 1000 μm between electrodes). Before culturing, the surfaces were modified to promote cell adhesion in an unbroken “U” pattern that connected multiple electrodes, allowing conduction velocity of the cells to be recorded at different points (14 mm total path length). Patterned cMEAs were introduced to the housings during system assembly on day 0 of the experiment.
Printed circuit boards (PCBs) and flexible elastomeric connectors (zebra connectors, FUJIPOLY, 1 mm wide×18.2 mm long×9 mm tall) were incorporated into each system to create an interface between the cMEA and a commercially available 60 electrode amplifier (MEA1060, Multichannel-systems). This amplifier was used to both record spontaneous and stimulated electrical activity of the cardiomyocytes. A stimulus generator (STG 1002, Multichannel Systems) was used to stimulate the cells (800 mV rectangular pulse, 0.5 Hz to 3.0 Hz in 0.25 Hz increments). The multichannel systems software suite was used to control both the amplifier and stimulator, and was used to record action potentials.
Drug additions were performed on day 3 of the experiment, immediately after baseline recordings of spontaneous and stimulated cell activity were taken. Cell activity was recorded again 48 and 96 hours after drug exposure. Conduction velocity (CV), spontaneous beat frequency and minimum interspike interval (MIST) were extracted from the data using Clampfit (Axon Instruments).
Spontaneous beat frequency was obtained from spontaneous recordings of cardiac activity 20 seconds in length. For each recording, the frequency was calculated as the number of measured action potentials divided by the length of time between the first and last action potential during the recording interval. […]

For series [3], the system named is THP-1 cells. Description: Viability of THP-1 cells treated directly. The settings on record: amiodarone treatment of THP-1 cells alone. The class given is cell-based, human.
The next series relates to 3-O systems+THP-1 cells. The series can be described thus: Cytokine release in multi-organ systems. The class given is cell-based, human. Conditions: 50 uM amiodarone; 7-day time course.
The subject of the next series is CYP1A. Description: Liver cytochrome p450 activity, endpoint D7. The class given is cell-based, human. The settings on record: 4-O systems, 50 uM amiodarone vs untreated controls. The procedure: (§1) Cytochrome p450 1A1 and 3A4 isoforms from the hepatic cultures were assessed with a luciferin based method in two reactions. Basal activities were compared to induced activities upon incubations with 10 nM TCDD (Sigma, 48599) and 20 μM Rifampicin (Sigma, R3501) for 48 h, prior to the analysis. At 7, 14, 21 and 28 DIV, cells were rinsed 3 times with 1×PBS and incubated with 1A1 specific substrate, Luciferin-CEE (120 μM) (Promega, V8752) in phenol red-free 1×DMEM (Thermo Fisher Scientific, A1443001) for 3 h at 37° C. The enzymatic product (D-Luciferin) of the first reaction was collected and stored at −80° C. until further analysis. […] Twenty minutes after incubation at room temperature in the dark, luminescence was measured using a Synergy HT plate reader with KC4 software. […] 3A4 samples were measured separately from 1A1 samples due to high differences in luminescence emission. Similarly, induced and uninduced samples were measured separately. Each plate was measured a minimum of 5 times to ensure the photomultiplier detector was stabilized, and the average of all readings was taken for the final RLU values. A regression line with the standards (0.5-500 nM diluted in 1×DMEM), subtracting intrinsic DMEM luminescence from values, was obtained for each analysis. […]

Series [4] has as its system IPSC derived cardiomyocytes. The series can be described thus: Cardiac conduction velocity on patterned cMEA in 3-O/4-O systems. The class given is cell-based, human. The procedure:
(§2) A four-organ system (4-O) was developed to contain a liver compartment, recirculating THP-1 cells, and three separate bioMEMs devices to measure the cardiomyocytes' electrical and mechanical functionality, as well as the mechanical function of the skeletal muscle. Three organ systems (3-0) were also developed to serve as a monocyte-free control for the 4-O systems. […] Cardiac and skeletal muscle mechanical function was evaluated by seeding the cardiomyocytes and skeletal muscle onto their own respective custom arrays of microscale cantilevers. Contractile force of the cardiac and skeletal muscle was calculated from laser-based measurements of cantilever bending resulting from contractile muscle (Stancescu et al 2015). Cardiac electrical function was measured via a microelectrode array amplifier system by incorporating and patterning cardiomyocytes onto custom microelectrode arrays with chemical patterning to produce a defined conduction path along a series of surface embedded microelectrodes (Nataraj an et al 2011, Stancescu et al 2015). Electrical stimulation for skeletal muscle force was generated inside the system with housing-embedded electrodes for cantilevers. […]
Custom patterned multielectrode arrays (cMEAs) were fabricated to simultaneously stimulate and record electrical activity of cardiomyocytes cultured on the surface (100 μm diameter electrodes, 1000 μm between electrodes). Before culturing, the surfaces were modified to promote cell adhesion in an unbroken “U” pattern that connected multiple electrodes, allowing conduction velocity of the cells to be recorded at different points (14 mm total path length). […]
Drug additions were performed on day 3 of the experiment, immediately after baseline recordings of spontaneous and stimulated cell activity were taken. Cell activity was recorded again 48 and 96 hours after drug exposure. […]

The target of the next series is CYP2C9 (Homo sapiens, UniProt P11712). The series can be described thus: Liver cytochrome p450 activity, endpoint D7. The class given is cell-based. The settings on record: 4-O systems, 50 uM amiodarone vs untreated controls.
A further series deals with skeletal muscle cells. The series can be described thus: Endpoint viability (alamar blue) of skeletal muscle chips. The class given is cell-based, human. Conditions: 50 uM; endpoint day 7. For orientation: Resazurin is reduced to fluorescent resorufin, in cell work by metabolically active cells.
Series [5] deals with IPSC derived cardiomyocytes. The series can be described thus: Cardiac contractile force on cantilevers in 3-O/4-O systems. The class given is cell-based, human. The procedure: as §2
(§3) Cardiac and skeletal muscle contractions were measured using a cantilever deflection system that has been described previously (McAleer, 2014; Oleaga, 2016; Oleaga, 2017; Pirozzi, 2013). […]

Another series deals with CYP3A4 (Homo sapiens, UniProt P08684). The series can be described thus: Liver cytochrome p450 activity, endpoint D7. The class given is cell-based. Conditions: 4-O systems, 50 uM amiodarone vs untreated controls. How it is done: as §1
The next series has as its system cardiac tissue. Description: THP-1 cell infiltration into cardiac tissue (phase contrast, CellTracker Red). Conditions: 4-O system dosed with amiodarone, after three days. The class given is cell-based, human.
For a further series, the system named is cardiac cells. Description: Endpoint viability (alamar blue) of cardiac chips. Conditions: 50 uM; endpoint day 7. The class given is cell-based, human.
The test system of the next series is skeletal muscle myotubes. The series can be described thus: Skeletal muscle force on cantilevers in 3-O/4-O systems. The class given is cell-based, human. Conditions: 50 uM; up to four days after dose, with or without THP-1. The procedure: as §2, §3
For a further series, the system named is liver tissue. The series can be described thus: THP-1 infiltration into liver module by immunocytochemistry (CD11b, CD86). The class given is cell-based, human. Conditions: systems with recirculating THP macrophages, amiodarone, vs controls. The procedure:
At the end of each experiment, cardiac cMEAs and hepatocyte coverslips were fixed with 4% paraformaldehyde in 1×PBS for 5 minutes. Cells were rinsed twice with 1×PBS and Cells were permeabilized with a solution of 0.1% Triton X-100 in 1×PBS for 15 minutes then blocked with 5% donkey serum in 1×PBS for 20 minutes. Cells were then incubated overnight at 4° C. with primary antibody in blocking solution. Primary antibodies used were anti-CD14, anti-CD16, anti-CD69, anti-CD11b, anti-CD86, and anti-CCR5. Following three, five-minute washes with 1×PBS, cells were incubated for 2 hours at room temperature in the dark with a secondary antibody conjugated to Alexa-488 fluorophore, or Alexa-568 fluorophore. Following the secondary antibody incubation, surfaces were washed 3× in PBS and incubated with 3 mM 4′-6-Diamidino-2-Phenylindole (DAPI) in 1×PBS for 10 min, in the dark and at RT for nuclei staining. DAPI solution was removed and the cells were washed 3× with PBS. Finally, coverslips were mounted on glass slides using a Hard Set Mounting with DAPI (Vector laboratories, Inc.). Alternatively, MEAs were left in the final 1×PBS rinse and imaged using a water immersion lens.

A short description of series [6]: HPLC/MS determination of amiodarone remaining in system medium. The class given is in vitro ADME. Conditions: 24 hours post-dose.
Procedure: Drug addition to the 3-O and 4-O systems was performed on D3 post-assembly. On the day of addition, 3× concentrations of each drug in the serum-free, multi-organ system medium (MOSM) were prepared in advance. ⅓ of the media in each system was removed and replaced with an equal volume of the concentrated drug solution. This facilitated for rapid mixing and complete diffusion of the drugs in the systems without requiring a full media change. […] Lipopolysaccharide (LPS, Sigma-Aldrich, L2630) was dissolved in PBS 1× at a concentration of 1 μg/mL and interferon-γ (IFN-γ) (Sigma-Aldrich, 11040596001) was dissolved in DI water at a concentration of 100,000 units/mL. LPS and IFN-γ were administered as a single cocktail at final concentrations of 10 ng/mL and 100 units/mL, respectively.
Medium samples collected from the systems were spiked with a tamoxifen internal standard (10 nM final measured concentration) and combined with acetonitrile at a 1:3 ratio to extract proteins. The mixtures were then centrifuged at 100×G for 5 minutes and supernatants were collected and diluted 1 to 51 in the initial mobile phase. […] Quantification and qualification ions for tamoxifen were 372.2→72.1 (28 eV CE) and 372.2→44 (48 eV), respectively. […]
Setting [7] is: THP-1 culture dosed with 50 μM PMA (positive control).
Setting [8] is: 50 uM acute, 4-O systems (with THP-1 cells).
The mark [9] stands for this setting: 50 uM, 4-O systems, D4 after dose.
The mark [10] stands for this setting: 50 uM, without THP-1, vs untreated 3-O systems.
Setting [11] is: amiodarone treatment of THP-1 cells alone.
The mark [12] stands for this setting: recirculating THP-1 cells from 4-O & 4-O+Amiodarone systems, days 1, 3, 5, 7.

Each structure is given as a SMILES string. Counter-ions that a name gives are not always drawn.

Sequence of CYP3A4 (P08684 whole entry): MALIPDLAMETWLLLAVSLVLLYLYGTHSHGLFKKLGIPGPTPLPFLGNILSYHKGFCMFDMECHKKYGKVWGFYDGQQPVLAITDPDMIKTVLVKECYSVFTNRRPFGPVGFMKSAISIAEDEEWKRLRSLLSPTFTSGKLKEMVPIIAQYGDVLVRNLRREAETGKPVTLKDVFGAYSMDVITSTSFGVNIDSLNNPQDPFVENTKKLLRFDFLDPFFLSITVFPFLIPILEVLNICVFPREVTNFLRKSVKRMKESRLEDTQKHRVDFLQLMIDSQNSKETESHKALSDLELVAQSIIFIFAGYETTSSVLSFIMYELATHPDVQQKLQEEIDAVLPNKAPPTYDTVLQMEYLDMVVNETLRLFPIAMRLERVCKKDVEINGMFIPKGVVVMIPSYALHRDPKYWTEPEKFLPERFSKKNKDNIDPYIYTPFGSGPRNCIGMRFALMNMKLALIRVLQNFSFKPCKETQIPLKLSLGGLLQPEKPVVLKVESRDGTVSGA
Sequence of CYP2C9 (P11712 whole entry): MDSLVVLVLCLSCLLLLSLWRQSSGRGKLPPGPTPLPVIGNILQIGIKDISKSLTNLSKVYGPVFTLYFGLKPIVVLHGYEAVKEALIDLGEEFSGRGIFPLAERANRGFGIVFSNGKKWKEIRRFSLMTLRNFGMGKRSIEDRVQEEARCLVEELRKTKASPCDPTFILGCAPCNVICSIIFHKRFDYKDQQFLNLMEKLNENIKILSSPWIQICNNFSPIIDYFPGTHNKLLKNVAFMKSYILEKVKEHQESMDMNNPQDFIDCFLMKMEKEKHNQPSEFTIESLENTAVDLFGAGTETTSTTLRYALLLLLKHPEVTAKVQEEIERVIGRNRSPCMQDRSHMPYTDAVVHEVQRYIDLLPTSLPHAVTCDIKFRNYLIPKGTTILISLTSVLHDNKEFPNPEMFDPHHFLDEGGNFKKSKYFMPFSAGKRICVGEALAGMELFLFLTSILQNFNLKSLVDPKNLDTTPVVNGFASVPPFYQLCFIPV
Procedure for cardiac cells: (§4) Cell viability was evaluated in one of three ways depending on the surface the cells were grown on. […] The viability of cardiac and skeletal muscle cells plated on BioMEMs devices was assessed using an alamar blue solution (Thermofisher, DAL1025). Surfaces were incubated in 500 μL of a 10% solution (v:v) of alamar blue in growth medium at 37° C., 5% CO2 for 24 hours. 100 μL of the solution was placed into a 96 well plate and read at fluorescence excitation wavelength 570 nm and emission at 590 nm using the BioTeK Synergy HT plate reader.
Procedure for cardiac tissue: THP-1 cells were collected in a 15 mL conical tube and centrifuged to a pellet at 300 g for 5 minutes. The cells were resuspended and counted and the volume adjusted to 1×10^6 cells/mL. Then cells were then incubated with Cell Tracker Red CMTPX Dye (ThermoFisher C34552) following the manufacturer's protocol. The dye loaded cells were then used for infiltration studies in 4-O systems as described.
Procedure for skeletal muscle cells: as §4

For `CCCCCCCCCCCCCC(=O)O[C@@H]1[C@@H](C)[C@@]2(O)[C@@H](C=C(CO)C[C@]3(O)C(=O)C(C)=C[C@@H]23)[C@@H]2C(C)(C)[C@]12OC(C)=O` [PMA, phorbol 12-myristate 13-acetate], in the series on THP-1 cells [1] (setting [7]), the “increase in CCR5 expression” value is reported as 8% and the “increase in CD11b expression” value was determined as 23%. For the same compound, the “CD86 expression (printed C86)” value in the series with THP-1 cells [1] (THP-1 culture dosed with PMA (positive control)) was “relatively unchanged”.

Take `CCCCc1oc2ccccc2c1C(=O)c1cc(I)c(OCCN(CC)CC)c(I)c1` [amiodarone, Amiodarone hydrochloride]: the “decrease in cardiac beat frequency” value in [2] (setting [8]) is listed as 60%. For the same compound, the “beat frequency at D4” value in series [2] (setting [9]) is reported as “recovery”. The “reduction of cardiac beat frequency” value in series [2] (setting [10]) is recorded as 45%. In the series on THP-1 cells [1] (setting [11]), the CCR5 expression result is recorded as “did not significantly alter”, the CD11b expression result is recorded as “did not significantly alter” and the CD86 expression result was “did not significantly alter”. For the same compound, in the series with THP-1 cells [1] (setting [12]), the CCR5 expression entry is “largely stable”, the CD11b expression entry is given as “increased” and the CD86 expression result was “largely stable”. Also, the THP-1 cell viability result in the series on THP-1 cells [3] is “did not significantly alter”. Moreover, in the series with 3-O systems+THP-1 cells, the IL-6 level entry was “increased”, the IL-8 level result is recorded as “increased” and the MCP-1 level result is given as “increased”. In addition, in the series with CYP1A, the CYP1A activity result was “not affected”. In addition, in [4] (setting [8]), the “decrease in cardiac conduction velocity” value is given as 50%. Also, the “conduction velocity at D4” value in [4] (setting [9]) was “recovery”. In addition, in series [4] (setting [10]), the “reduction of cardiac conduction velocity” value came to 20%. Moreover, the CYP2C9 activity result on CYP2C9 was “not affected”. The “skeletal muscle chip viability” value with skeletal muscle cells is reported as “does not significantly reduce viability”. Besides, the “decrease in cardiac force output” value in series [5] (setting [8]) came to 80%. Further, in series [5] (acute dose 50 uM, printed as 4-O systems treated vs untreated systems), the “decrease in cardiac force output” value turned out to be 50%. At CYP3A4, the CYP3A4 activity entry is “significantly reduced”. The “THP-1 cell infiltration into cardiac tissue” value in the series on cardiac tissue is given as “visibly infiltrated”. Also, the cardiac chip viability result with cardiac cells is reported as “does not significantly reduce viability”. Besides, the “effect on skeletal muscle force” value in the series on skeletal muscle myotubes is “no significant effect”. The “CD11b and CD86 staining of liver cells (THP infiltration)” value with liver tissue is “increase”. Moreover, the “amiodarone mean concentration still present in the systems” value in [6] (50 μM dose, 3-O systems+THP-1 cells) came out at 1.41 µM. In addition, in [6] (from 50 μM), the “reduction of amiodarone in medium” value came to 97%.
